Earlier results in patent US20220000834A1, “NOVEL ADMINISTRATION METHOD” (SUMITOMO DAINIPPON PHARMA CO., LTD., priority 2019, published 2022).

B1: Sema3A: class 3 semaphorin; suppresses growth of neurite growth cone (protein, UniProt Q14563 21-771, looked up)
Semaphorin-3A: NYQNGKNNVPRLKLSYKEMLESNNVITFNGLANSSSYHTFLLDEERSRLYVGAKDHIFSFDLVNIKDFQKIVWPVSYTRRDECKWAGKDILKECANFIKVLKAYNQTHLYACGTGAFHPICTYIEIGHHPEDNIFKLENSHFENGRGKSPYDPKLLTASLLIDGELYSGTAADFMGRDFAIFRTLGHHHPIRTEQHDSRWLNDPKFISAHLISESDNPEDDKVYFFFRENAIDGEHSGKATHARIGQICKNDFGGHRSLVNKWTTFLKARLICSVPGPNGIDTHFDELQDVFLMNFKDPKNPVVYGVFTTSSNIFKGSAVCMYSMSDVRRVFLGPYAHRDGPNYQWVPYQGRVPYPRPGTCPSKTFGGFDSTKDLPDDVITFARSHPAMYNPVFPMNNRPIVIKTDVNYQFTQIVVDRVDAEDGQYDVMFIGTDVGTVLKVVSIPKETWYDLEEVLLEEMTVFREPTAISAMELSTKQQQLYIGSTAGVAQLPLHRCDIYGKACAECCLARDPYCAWDGSACSRYFPTAKRRTRRQDIRNGDPLTHCSDLHHDNHHGHSPEERIIYGVENSSTFLECSPKSQRALVYWQFQRRNEERKEEIRVDDHIIRTDQGLLLRSLQQKDSGNYLCHAVEHGFIQTLLKVTLEVIDTEHLEELLHKDDDGDGSKTKEMSNSMTPSQKVWYRDFMQLINHPNLNTMDEFCEQVWKRDRKQRRQRPGHTPGNSNKWKHLQENKKGRNRRTHEFERAPRSV

Assays:
[1] = system: nerves in an injured part; conditions: Patent Documents 1 and 2
[2] = system: nerve cells; conditions: as low as

Molecule	regeneration of nerves in an injured part [1]	concentration inducing regression of nerve cells [2]
CC(=O)c1cc2c(=O)c3c(C(=O)O)c(O)c(O)cc3oc2c(C(C)=O)c1-c1coc2cc(O)c(O)c(C(=O)O)c2c1=O [compound A]	accelerates the regeneration of nerves in an injured part	
B1		10 pM
